As a reminder, the EC50 is the concentration needed to bring the measured effect to its halfway point. The term IC50 denotes the concentration that inhibits the measured activity by half.

Experimental findings from patent US20160052918A1, “SMALL COMPOUNDS TARGETING TACC3” (JAPANESE FOUNDATION FOR CANCER RESEARCH, priority 2012, published 2016) are described below.

Data set [1] deals with SKOV-3 cells expressing EGFP-α-tubulin. As to the kind of experiment: Mitotic arrest of synchronized EGFP-α-tubulin-expressing SKOV-3 cells, time-lapse single-cell analysis. The settings on record: for EC50: Homo sapiens, SK-OV-3, 72 h, mitotic arrest, EC50=50% arrest rate, double thymidine block, time-lapse 3 days, at least 50 cells, read-out: SKOV3 EC50; for inhibitory effects on cell growth: summary of Table 2 (SKOV-3 mitotic arrest and lymphoma cell death); for Remarks: start of mitosis: At 66.7 μg/ml; for Remarks: cytotoxic: Table 2 remark. It counts as cell-based. The procedure:
The EGFP-α-tubulin-expressing cells used in the assay will be described. In order to observe mitosis under a fluorescence microscope, cells expressing EGFP-α-tubulin (fusion protein of a fluorescent protein, EGFP, and α-tubulin) were prepared. A system observable under a fluorescence microscope without cell fixation was prepared.
Ovary cancer cells SKOV-3 were cultured in an RPMI1640 medium supplemented with 5% fetal bovine serum. Stable cells expressing EGFP-α-tubulin were transduced by lentiviral transduction using pLenti4/V5-DEST vectors (Registered Trade Mark) (manufactured by Invitrogen Corp.) and selected by the FACS sorting of infected cells using Zeocin (Registered Trade Mark) and subsequent FACSAria (Registered Trade Mark) (Becton, Dickinson and Company).
The compounds NPD2448, NPD2568, NPD3574, NPD4089, and C7—O-propylated NPD3574 were each added at varying concentrations to the culture medium of SKOV-3 cells expressing EGFP-α-tubulin and analyzed for their effect on cell division.
The SKOV-3 cells expressing EGFP-α-tubulin were synchronized by thymidine block to analyze the effect on cell division of each compound. As shown in the upper part of FIG. 2, each compound was added to the culture medium after the 1st thymidine block. After synchronization by the second thymidine block, images were taken every 2 minutes for 3 days using Leica AF6000 and ×20/0.5 Plan Fluotar objective lens in a phenol red-free RPMI1640 medium supplemented with 5% fetal bovine serum. These time-lapse images were analyzed using ImageJ 1.42a software, and the time of mitotic arrest was determined by visual judgment. The duration of mitosis was manually determined from the image sequences of at least 50 cells.
The mitotic arrest (EC50=50% arrest rate) was tested by the microscopic analysis of individual single cells.
EGFP-α-tubulin-expressing SKOV-3 cells synchronized by double thymidine block in the same way as in Example 2 were treated with each synthesized compound and subjected to time-lapse photography for 3 days. At least 50 cells were observed. The time of arrest of each cell was calculated, and EC50 was determined therefrom.
EGFP-α-tubulin-expressing SKOV-3 cells supplemented with each of SPL-A and SPL-B at varying concentrations were synchronized by double thymidine block in the same way as in Example 2. Analysis based on single cells was conducted by time-lapse photography. The duration of mitosis was measured from the image sequences of at least 50 cells.

The test system of another data set is mouse lymphoma cell line. As to the kind of experiment: Cell death of lymphoma (survival rate, WST-1). It is filed as cell-based. Conditions: 72 h, IC50=50% survival rate, three days. On the procedure: The synthesized compounds were analyzed for their activity against cell death induction using a mouse lymphoma cell line (see Non Patent Literature 12), which was a cell line derived from thymic lymphoma developed in p53KO mouse.
The number of the lymphoma cells was adjusted to 1.2×10^5 cells/ml. The cells were inoculated at a concentration of 50 μl/well to a 96-well culture dish. A medium containing each RT compound as the novel compound of the present invention at twice the concentration of 50 μl was further added thereto (final concentration: 0.021 to 13.3 μg/ml). Three days after cultivation, the survival rate was calculated using WST-1 reagent (manufactured by F. Hoffmann-La Roche, Ltd.).
(Tetrazolium dyes change colour on reduction, which living cells bring about.)

≈ marks a conversion by molar mass, not a printed value. A value given as a limit tells only on which side of the number the result lay.

Regarding `COCCN(CCOC)Cc1c(OCC(O)C(C)(C)O)ccc2c(-c3cc4ccccc4oc3=O)cc(=O)oc12` (centres unmarked) [RT-026], the EC50 in data set [1] was > 66.7 µg/mL.
In the case of `COCCN(CCOC)Cc1c(O)ccc2c(-c3cc4cc(Br)ccc4oc3=O)cc(=O)oc12` [RT-028], in data set [1], the half-maximal effective concentration (EC50) came out at 6.56 µg/mL (≈ 12.4 µM) and the “inhibitory effects on cell growth” value is “remarkable inhibitory effects on cell growth”. In addition, in the data set on mouse lymphoma cell line, the IC50 stood at 3.28 µg/mL (≈ 6.18 µM).
On the same counts, the results for `O=c1cc(-c2cc3ccccc3oc2=O)c2ccc(O)c(CN3CCOCC3)c2o1` [RT-012] are 1.39 µg/mL (≈ 3.43 µM), “remarkable inhibitory effects on cell growth” and 2.05 µg/mL (≈ 5.06 µM).
As for `O=c1cc(-c2cc3ccccc3oc2=O)c2ccc(O)c(CN3CCCCC3)c2o1` [RT-009], in data set [1], the 50% effective concentration (EC50) stood at 2.68 µg/mL (≈ 6.64 µM) and the “inhibitory effects on cell growth” value is reported as “remarkable inhibitory effects on cell growth”. In the data set with mouse lymphoma cell line, this compound yielded a half-maximal inhibitory concentration (IC50) of 10.1 µg/mL (≈ 25.1 µM).
As for `CC(=O)OCc1c(OC(C)=O)ccc2c(-c3cc4ccccc4oc3=O)cc(=O)oc12` [RT-002], in data set [1], the “Remarks: start of mitosis” value was “μg/ml, mitosis did not”; the concentration for a half-maximal effect (EC50) was > 13.3 µg/mL; the “Remarks: cytotoxic” value is recorded as “Cytotoxic. At 66.7”; the “inhibitory effects on cell growth” value is recorded as “remarkable inhibitory effects on cell growth”. In the data set on mouse lymphoma cell line, the midpoint of inhibition, the IC50, lay at 8.3 µg/mL (≈ 19.7 µM).
Regarding `COCC[N+]([O-])(CCOC)Cc1c(OCC=C(C)C)ccc2c(-c3cc4ccccc4oc3=O)cc(=O)oc12` [RT-025], in data set [1], the half-maximal effective concentration (EC50) is > 66.7 µg/mL.
In the case of `CN(CCO)Cc1c(O)ccc2c(-c3cc4ccccc4oc3=O)cc(=O)oc12` [RT-004], in data set [1], the EC50 was found to be 8.49 µg/mL (≈ 21.6 µM) and the “inhibitory effects on cell growth” value is “remarkable inhibitory effects on cell growth”. Moreover, in the data set with mouse lymphoma cell line, the IC50 was > 13.3 µg/mL.
On the same counts, the results for `O=c1cc(-c2cc3cc(F)ccc3oc2=O)c2ccc(O)c(CN3CCOCC3)c2o1` [RT-019] are 0.16 µg/mL (≈ 0.378 µM), “remarkable inhibitory effects on cell growth” and 0.12 µg/mL (≈ 0.283 µM).
On the same counts, the results for `O=c1cc(-c2cc3ccccc3oc2=O)c2ccc(O)c(CN3CCCC3)c2o1` [RT-008] are 2.67 µg/mL (≈ 6.86 µM), “remarkable inhibitory effects on cell growth” and 9.77 µg/mL (≈ 25.1 µM).
For `COCCN(CCOC)Cc1c(O)ccc2c(C)cc(=O)oc12` [RT-001], the EC50 in data set [1] is > 66.7 µg/mL.
With `O=c1cc(-c2cc3ccccc3oc2=O)c2ccc(O)c(CN3CCC(N4CCCCC4)CC3)c2o1` [RT-014], in data set [1], the EC50 stood at 8.76 µg/mL (≈ 18 µM) and the “inhibitory effects on cell growth” value was “remarkable inhibitory effects on cell growth”. This compound also came in with an IC50 in the data set with mouse lymphoma cell line of 8.25 µg/mL (≈ 17 µM).
For `CCCOc1ccc2c(-c3cc4ccccc4oc3=O)cc(=O)oc2c1CN(CCOC)CCOC` [RT-013], the EC50 in data set [1] was > 66.7 µg/mL.
Same read-out and setting: the same measure for `COCCN(CCOC)Cc1c(OCC(O)CO)ccc2c(-c3cc4ccccc4oc3=O)cc(=O)oc12` (centres unmarked) [RT-024]: > 66.7 µg/mL.
Consider `C=CCOc1ccc2c(-c3cc4ccccc4oc3=O)cc(=O)oc2c1C[N+]([O-])(CCOC)CCOC` [RT-023], for which the concentration giving a half-maximal response (EC50) in data set [1] was > 66.7 µg/mL.
With `COCCN(CCOC)Cc1c(O)ccc2c(-c3cc4cc(F)ccc4oc3=O)cc(=O)oc12` [RT-029], in data set [1], the concentration for a half-maximal effect (EC50) was determined as 0.17 µg/mL (≈ 0.362 µM) and the “inhibitory effects on cell growth” value is “remarkable inhibitory effects on cell growth”. This compound displayed an IC50 in the data set on mouse lymphoma cell line of 0.21 µg/mL (≈ 0.447 µM).
With `O=c1cc(-c2cc3ccccc3oc2=O)c2ccc(O)cc2o1` [RT-030], in data set [1], the EC50 is > 66.7 µg/mL.
Regarding `CN(C)CCNCc1c(O)ccc2c(-c3cc4ccccc4oc3=O)cc(=O)oc12` [RT-005], in data set [1], the “Remarks: start of mitosis” value was “μg/ml, mitosis did not”; the EC50 is > 13.3 µg/mL; the “Remarks: cytotoxic” value is recorded as “Cytotoxic. At 66.7”; the “inhibitory effects on cell growth” value is given as “remarkable inhibitory effects on cell growth”. In the data set on mouse lymphoma cell line, the IC50 worked out at 5.37 µg/mL (≈ 13.2 µM).
Take `CCN(CC)Cc1c(O)ccc2c(-c3cc4ccccc4oc3=O)cc(=O)oc12` [RT-003]: in data set [1], the EC50 came to 0.85 µg/mL (≈ 2.17 µM) and the “inhibitory effects on cell growth” value was “remarkable inhibitory effects on cell growth”. In the data set on mouse lymphoma cell line, this compound came in with an IC50 of 5.08 µg/mL (≈ 13 µM).
